Key:
[1] = system: Nedd8-cullin; assay: Cullin neddylation, protein immunoblotting in HepG2 cells; format: cell-based; details: 48 h at 10 uM (FIG. 2)
Source text: Cells were then collected and assayed for protein immunoblotting. […]
DCN1 protein is believed to harbor a UBC12 binding pocket. Scott et al, Cell 757:1671-84 (2014). […] Scott et al. (2014). The N-terminal acetylation acts as an avidity enhancer within an interconnected multiprotein complex. Science, 554:674-8 (2011). Specifically, n-terminal of UBC12 is acetylated (FIG. 1A, yellow) and completely buried inside the hydrophobic pocket within DCN1 (4gao.PDB, FIG. 1B). Small molecule inhibition of the DCN1 hydrophobic pocket would presumably disrupt UBC12 binding, and thus disrupt Neddylation of Cullin protein. Potential ligands were assessed that might fit the DCN1 domain cavities (FIG. 1B). 3-(pentylamino)-5-phenylcyclohex-2-en-1-one was selected for future testing (FIG. 1C). […] MLN4924 was used as a positive control.

[2] = system: HepG2 cells; assay: HepG2 cell proliferation (CellTiter-Glo Luminescent Cell Viability Assay); format: cell-based; details: Homo sapiens, 96 h, ATP production, n=3, read-out: IC50Proliferation
Protocol: Cell proliferation were then measured by CellTiter-Glo® Luminescent Cell Viability Assay (n=3).
4KHepG2 cells were seeded in 96 well plates for overnight. Compounds listed in Table 3 were then added to each well at various concentrations. 96 h later, cell proliferation was measured by ATP production using a CellTiter-Glo® Luminescent Cell Viability Assay (Promega).
3-(pentylamino)-5-phenylcyclohex-2-en-1-one was modified by adding a different sidechain. These novel compounds were tested further in an in vitro proliferation assay using ATPLite Cell Proliferation kit. […] Others lost activity in reducing Cullin Neddylation and inhibiting cell proliferation (FIG. 3C-D).

[3] = system: HepG2 tumor implants; assay: HepG2 tumor implants in nude mice, tumor growth; format: in vivo, athymic nude mice; details: compounds in drinking water (15 mg/kg/d), start at tumor size 0.1 cm^3 (FIG. 8)
Protocol: Mice were implanted with HepG2 cells (10^6 cells) through subcutaneous injection. 2 weeks later, once tumor size reaches ˜0.1 cm^3, mice were randomized and the treatment began by adding compounds to the drinking water ([…]). Tested compounds were: Vehicle, 3-(decylamino)-5-phenylcyclohex-2-en-1-one (BC1558), 3-(dibenzylamino)-5-phenylcyclohex-2-en-1-one (BC1634) or 3-((4-phenoxybenzyl)amino)-5-phenylcyclohex-2-en-1-one (BC1653). Tumor volume measurements over time were graphed (n=4-5 mice/group, *P<0.05 versus Vehicle).
As a complementary in vivo model, tumorogenicity was further assessed after implanting HepG2 cells along with 3-(decylamino)-5-phenylcyclohex-2-en-1-one, 3-(dibenzylamino)-5-phenylcyclohex-2-en-1-one, 3-((4-phenoxybenzyl)amino)-5-phenylcyclohex-2-en-1-one treatment in athymic nude mice. Mice were implanted with HepG2 cells through subcutaneous injection. Two weeks later, once tumor size reached 0.1 cm^3, the mice were randomized and the treatment began by adding compounds to the drinking water (15 mg/kg/d).

[4] = system: DSS induced colonic inflammation; assay: DSS induced colitis model; format: in vivo, C57BL6 mice; details: DSS in water
Protocol: FIGS. 12A-12D show DCN1 inhibitors reduce DSS induced colonic inflammation, specifically the following experimental results C57BL6 mice were fed with water ad lib containing 3% dextran sulfate sodium (DSS) for six days. DCN1 inhibitors were administered into drinking water at 10 mg/kg/d, starting at day 1. […] The data represent n=4 mice/group, *P<0.05 versus CON.
Also tested were 3-(decylamino)-5-phenylcyclohex-2-en-1-one (BC1558), 3-(dibenzylamino)-5-phenylcyclohex-2-en-1-one (BC1634) and 3-((4-phenoxybenzyl)amino)-5-phenylcyclohex-2-en-1-one (BC1653) in a mouse colitis model to confirm its anti-inflammatory activity. Briefly, C57BL6 mice were fed with water containing 3.5% […] and colonic length was measured. DSS produced a significant decrease in colon length in mice, consistent with colonic inflammation (FIG. 12A-B). […] Colonic tissue cytokine levels were further analyzed.

Row | Structure (SMILES) | IC50 [2] | other results
1 | CCCCCNC1=CC(=O)CC(c2ccccc2)C1 (stereo not drawn) [3-(pentylamino)-5-phenylcyclohex-2-en-1-one] | – | reducing cullin1 neddylation [1]: good activity
2 | O=C1C=C(NC2CCCCC2)CC(c2ccccc2)C1 (stereo not drawn) [BC1534] | > 10 µM | –
3 | CCC(C)NC1=CC(=O)CC(c2ccccc2)C1 (stereo not drawn) [BC1546] | > 10 µM | –
4 | O=C1C=C(NC23CC4C[C@H](C2)C[C@@H](C4)C3)CC(c2ccccc2)C1 (stereo partly drawn) [BC1549] | > 10 µM | –
5 | O=C1C=C(NC2C[C@@H]3CCC2C3)CC(c2ccccc2)C1 (stereo partly drawn) [BC1550] | 1 to 10 µM | –
6 | CCCCCCCCCCCCCCCCNC1=CC(=O)CC(c2ccccc2)C1 (stereo not drawn) [BC1564] | > 10 µM | –
7 | O=C1C=C(NC(c2ccccc2)c2ccccc2)CC(c2ccccc2)C1 (stereo not drawn) [BC1621] | > 10 µM | –
8 | O=C1C=C(NC2CCCCCCCCCCC2)CC(c2ccccc2)C1 (stereo not drawn) [BC1623] | > 10 µM | –
9 | O=C1C=C(NC2CCC2)CC(c2ccccc2)C1 (stereo not drawn) [BC1625] | > 10 µM | –
10 | CC1(C)C2C[C@@H]1CCC2CNC1=CC(=O)CC(c2ccccc2)C1 (stereo partly drawn) [BC1627] | 1 to 10 µM | –
11 | O=C1C=C(NCC2CCCCC2)CC(c2ccccc2)C1 (stereo not drawn) [BC1633] | > 10 µM | –
12 | O=C1C=C(N(Cc2ccccc2)Cc2ccccc2)CC(c2ccccc2)C1 (stereo not drawn) [BC1634, 3-(dibenzylamino)-5-phenylcyclohex-2-en-1-one] | – | tumor size compared to the vehicle [3]: Significantly reduced tumor size
13 | Cc1ccccc1-c1cccc(CNC2=CC(=O)CC(c3ccccc3)C2)c1 (stereo not drawn) [BC1640] | 1 to 10 µM | –
14 | Cc1ccccc1-c1cccc(CNC2=CC(=O)CC(c3ccc4c(c3)OCO4)C2)c1 (stereo not drawn) [BC1641] | > 10 µM | –
15 | CCCCCCCCCCNC1=CC(=O)CC(c2ccc3c(c2)OCO3)C1 (stereo not drawn) [BC1644] | > 10 µM | –
16 | CCCCCCCCCCNC1=CC(=O)CC(c2ccc(F)cc2)C1 (stereo not drawn) [BC1648] | 1 to 10 µM | –
17 | O=C1C=C(NCc2cccc(-c3ncccn3)c2)CC(c2ccccc2)C1 (stereo not drawn) [BC1650] | 1 to 10 µM | –
18 | Cc1cccc(N2CCC(NC3=CC(=O)CC(c4ccccc4)C3)CC2)c1 (stereo not drawn) [BC1654] | > 10 µM | –
19 | O=C1C=C(Nc2cnc(-c3ccccc3)nc2)CC(c2ccccc2)C1 (stereo not drawn) [BC1655] | > 10 µM | –
20 | O=C1C=C(NCc2cnc(Nc3ccccc3)nc2)CC(c2ccccc2)C1 (stereo not drawn) [BC1656] | > 10 µM | –
21 | O=C1C=C(NCc2cnc(-c3ccccc3)nc2)CC(c2ccccc2)C1 (stereo not drawn) [BC1657] | 1 to 10 µM | –
22 | O=C1C=C(NCc2nc3ccccc3[nH]2)CC(c2ccccc2)C1 (stereo not drawn) [BC1658] | > 10 µM | –
23 | COc1ccc(Oc2ccc(CNC3=CC(=O)CC(c4ccccc4)C3)cc2)cc1 (stereo not drawn) [BC1660] | 1 to 10 µM | –
24 | CC(NC1=CC(=O)CC(c2ccccc2)C1)c1ccc(Oc2ccccc2)cc1 (stereo not drawn) [BC1661] | > 10 µM | –
25 | CN1CCC(c2ccc(CNC3=CC(=O)CC(c4ccccc4)C3)cc2)CC1 (stereo not drawn) [BC1664] | > 10 µM | –
26 | O=C1C=C(NCc2ccc(CN3CCCCC3)cc2)CC(c2ccccc2)C1 (stereo not drawn) [BC1665] | > 10 µM | –
27 | CC1CC(C)CN(Cc2ccc(CNC3=CC(=O)CC(c4ccccc4)C3)cc2)C1 (stereo not drawn) [BC1667] | > 10 µM | –
28 | O=C1C=C(NCc2ccc(CN3CCOCC3)cc2)CC(c2ccccc2)C1 (stereo not drawn) [BC1668] | 1 to 10 µM | –
29 | O=C1C=C(NCc2ccc3oc4ccccc4c3c2)CC(c2ccccc2)C1 (stereo not drawn) [BC1670] | 1 to 10 µM | –

Now from value to compound, other results behind:

Row | IC50 [2] | Structure (SMILES) | other results
30 | 1 to 10 µM | CCCCCNC1=CC(=O)CC(c2ccccc2)C1 (stereo not drawn) [BC1526] | –
31 | 1 to 10 µM | CC(C)CCNC1=CC(=O)CC(c2ccccc2)C1 (stereo not drawn) [BC1532] | –
32 | 1 to 10 µM | O=C1C=C(NCCc2ccccc2)CC(c2ccccc2)C1 (stereo not drawn) [BC1535] | –
33 | 1 to 10 µM | O=C1C=C(NCc2ccccc2)CC(c2ccccc2)C1 (stereo not drawn) [BC1548] | –
34 | < 1 µM | CCCCCCCNC1=CC(=O)CC(c2ccccc2)C1 (stereo not drawn) [BC1552] | –
35 | < 1 µM | CCCCCCCCNC1=CC(=O)CC(c2ccccc2)C1 (stereo not drawn) [BC1554] | –
36 | < 1 µM | CCCCCCCCCNC1=CC(=O)CC(c2ccccc2)C1 (stereo not drawn) [BC1556] | –
37 | < 1 µM | CCCCCCCCCCCNC1=CC(=O)CC(c2ccccc2)C1 (stereo not drawn) [BC1560] | –
38 | < 1 µM | CCCCCCCCCCCCNC1=CC(=O)CC(c2ccccc2)C1 (stereo not drawn) [BC1562] | –
39 | < 1 µM | O=C1C=C(NCc2ccc(-c3ccccc3)cc2)CC(c2ccccc2)C1 (stereo not drawn) [BC1629] | –
40 | < 1 µM | O=C1C=C(NCc2cccc(-c3ccccc3)c2)CC(c2ccccc2)C1 (stereo not drawn) [BC1631] | –
41 | < 1 µM | CCCCCCCCCCNC1=CC(=O)CC(c2ccco2)C1 (stereo not drawn) [BC1646] | –
42 | < 1 µM | O=C1C=C(NCc2cccc(Oc3ccccc3)c2)CC(c2ccccc2)C1 (stereo not drawn) [BC1651] | –
43 | < 1 µM | O=C1C=C(NCc2ccc(Oc3ccccc3)cc2)CC(c2ccccc2)C1 (stereo not drawn) [BC1653, 3-((4-phenoxybenzyl)amino)-5-phenylcyclohex-2-en-1-one] | tumor size compared to the vehicle [3]: Significantly reduced tumor size; colon length compared vehicle ([4]; compounds in drinking water at 10 mg/kg/d (FIG. 12A-B)): significant increase; IL1β and IL6 levels in colonic tissue compared to vehicle ([4]; compounds in drinking water at 10 mg/kg/d (FIG. 12C-D)): large reduction
44 | < 1 µM | O=C1C=C(NCc2ccc3[nH]c4ccccc4c3c2)CC(c2ccccc2)C1 (stereo not drawn) [BC1659] | –
45 | < 1 µM | O=C1C=C(NCc2ccc(Oc3ccc(F)cc3)cc2)CC(c2ccccc2)C1 (stereo not drawn) [BC1662] | –
46 | < 1 µM | O=C1C=C(NCc2ccc(OC3CCCCC3)cc2)CC(c2ccccc2)C1 (stereo not drawn) [BC1663] | –
47 | < 1 µM | O=C1C=C(NCc2ccc(OC3CCCC3)cc2)CC(c2ccccc2)C1 (stereo not drawn) [BC1666] | –
48 | < 1 µM | COc1cc(CNC2=CC(=O)CC(c3ccccc3)C2)ccc1OC1CCCC1 (stereo not drawn) [BC1669] | –

From patent US20200405715A1, “COMPOSITIONS AND METHODS FOR TREATING CANCER AND INFLAMMATORY DISEASES” (University of Pittsburgh - Of the Commonwealth System of …, priority 2016, published 2020)
